Here are results for five compounds from US20060281700A1, “SYNERGISTIC MODULATION OF FLT3 KINASE USING AMINOPYRIMIDINES KINASE MODULATORS” (priority 2005, published 2006).

One may read the IC50 as the point on the concentration scale where inhibition reaches its midpoint. Read a high IC50 as weaker potency.

The subject of one test is MV4-11 cells. Description: Inhibition of MV4-11 cell proliferation (CellTiterGlo, 72 hours). It is filed as cell-based. The settings on record: Homo sapiens; 72 hours growth; uncertainty ±20%. How it is done:
Inhibition Of MV4-11 and Baf3 Cell Proliferation
To assess the cellular potency of the FLT3 inhibitors of Formula I′, FLT3 specific growth inhibition was measured in the leukemic cell line MV4-11 (ATCC Number: CRL-9591). […] MV4-11 cells cannot grow and survive without active FLT3ITD.
To measure proliferation inhibition by test compounds, the luciferase based CellTiterGlo reagent (Promega), which quantifies total cell number based on total cellular ATP concentration, was used. Cells are plated at 10,000 cells per well in 100 ul of in RPMI media containing penn/strep, 10% FBS and 1 ng/ml GM-CSF or 1 ng/ml IL-3 for MV4-11 and Baf3 cells respectively.
Compound dilutions or 0.1% DMSO (vehicle control) are added to cells and the cells are allowed to grow for 72 hours at standard cell growth conditions (37° C., 5% CO2). For activity measurements in MV4-11 cells grown in 50% plasma, cells were plated at 10,000 cells per well in a 1:1 mixture of growth media and human plasma (final volume of 100 μL). To measure total cell growth an equal volume of CellTiterGlo reagent was added to each well, according to the manufacturer's instructions, and luminescence was quantified. Total cell growth was quantified as the difference in luminescent counts (relative light units, RLU) of cell number at Day 0 compared to total cell number at Day 3 (72 hours of growth and/or compound treatment). One hundred percent inhibition of growth is defined as an RLU equivalent to the Day 0 reading. Zero percent inhibition was defined as the RLU signal for the DMSO vehicle control at Day 3 of growth. All data points are an average of triplicate samples. […] Inhibition and IC50 data analysis was done with GraphPad Prism using a non-linear regression fit with a multiparamater, sigmoidal dose-response (variable slope) equation.
MV4-11 cells express the FLT3 internal tandem duplication mutation, and thus are entirely dependent upon FLT3 activity for growth. […] In contrast, the Baf3 cell proliferation is driven by the cytokine IL-3 and thus are used as a non-specific toxicity control for test compounds.
Background: In ATP-based viability assays light output follows the ATP content of the culture.

Test [1] addresses T1, isolated kinase domain of the human FLT3 receptor (a.a. 571-993) (Homo sapiens, UniProt P36888).
T1 construct: isolated kinase domain of the human FLT3 receptor (a.a. 571-993)
T1 sequence (P36888 571-993): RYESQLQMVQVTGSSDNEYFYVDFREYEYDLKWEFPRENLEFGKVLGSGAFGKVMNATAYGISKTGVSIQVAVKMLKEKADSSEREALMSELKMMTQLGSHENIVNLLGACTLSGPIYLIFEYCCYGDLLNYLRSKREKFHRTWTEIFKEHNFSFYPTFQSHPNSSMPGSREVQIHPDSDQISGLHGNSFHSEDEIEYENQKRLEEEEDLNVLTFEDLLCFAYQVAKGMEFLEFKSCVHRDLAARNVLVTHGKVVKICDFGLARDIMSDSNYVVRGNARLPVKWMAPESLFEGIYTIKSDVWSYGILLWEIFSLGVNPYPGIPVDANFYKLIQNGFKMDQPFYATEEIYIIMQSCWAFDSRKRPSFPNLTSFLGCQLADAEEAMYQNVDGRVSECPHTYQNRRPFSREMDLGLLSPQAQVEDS
Kind of test: FLT3 Fluorescence Polarization Kinase Assay. It is filed as biochemical. The conditions noted are these: 10 nM FLT3 571-993, 150 uM ATP; uncertainty ±10%. How it is done:
FLT3 Fluorescence Polarization Kinase Assay
To determine the activity of the FLT3 inhibitors of Formula I′ in an in vitro kinase assay, inhibition of the isolated kinase domain of the human FLT3 receptor (a.a. 571-993) was performed using the following fluorescence polarization (FP) protocol. The FLT3 FP assay utilizes the fluorescein-labeled phosphopeptide and the anti-phosphotyrosine antibody included in the Panvera Phospho-Tyrosine Kinase Kit (Green) supplied by Invitrogen. When FLT3 phosphorylates polyGlu4Tyr, the fluorescein-labeled phosphopeptide is displaced from the anti-phosphotyrosine antibody by the phosphorylated poly Glu4Tyr, thus decreasing the FP value. The FLT3 kinase reaction is incubated at room temperature for 30 minutes under the following conditions: 10 nM FLT3 571-993, 20 ug/mL poly Glu4Tyr, 150 uM ATP, 5 mM MgCl2, 1% compound in DMSO. The kinase reaction is stopped with the addition of EDTA. The fluorescein-labeled phosphopeptide and the anti-phosphotyrosine antibody are added and incubated for 30 minutes at room temperature.
All data points are an average of triplicate samples. Inhibition and IC50 data analysis was done with GraphPad Prism using a non-linear regression fit with a multiparamater, sigmoidal dose-response (variable slope) equation.
(In general: In fluorescence polarisation assays a small probe gives low polarisation when free and higher when bound to something large.)

In the case of `CO/N=C/c1c(N)ncnc1N1CCC(NC(=O)Cc2ccc(C(C)C)cc2)CC1` [Number 16, N-{1-[6-Amino-5-(methoxyimino-methyl)-pyrimidin-4-yl]-piperidin-4-yl}-2-(4-isopropyl-phenyl)-acetamide], the IC50 came out at 1400 nM in the test on MV4-11 cells and 1800 nM in test [1].
`CC(C)Oc1ccc(NC(=O)OC2CCN(c3ncnc(N)c3/C=N/OCCN3CCOCC3)CC2)cc1` [Number 3, (4-Isopropoxy-phenyl)-carbamic acid 1-{6-amino-5-[(2-morpholin-4-yl-ethoxyimino)-methyl]-pyrimidin-4-yl}-piperidin-4-yl ester]: the IC50 in the test with MV4-11 cells came out at 2800 nM; in test [1], 820 nM.
The matching figures for `CC(C)c1ccc(NC(=O)NC2CCN(c3ncnc(N)c3/C=N/OCCN)C2)cc1` (stereo not shown) [Number 27, 1-(1-{6-Amino-5-[(2-amino-ethoxyimino)-methyl]-pyrimidin-4-yl}-pyrrolidin-3-yl)-3-(4-isopropyl-phenyl)-urea]: 1700 nM and above 10000 nM.
The matching figures for `CO/N=C/c1c(N)ncnc1N1CCC(NC(=O)Nc2ccc(C(C)C)cc2)C1` (stereo not shown) [Number 30, 1-{1-[6-Amino-5-(methoxyimino-methyl)-pyrimidin-4-yl]-pyrrolidin-3-yl}-3-(4-isopropyl-phenyl)-urea]: 209 nM and 4700 nM.
The matching figures for `CO/N=C/c1c(N)ncnc1N1CCC(NC(=O)Nc2ccc(N3CCCC3)cc2)CC1` [Number 24, 1-{1-[6-Amino-5-(methoxyimino-methyl)-pyrimidin-4-yl]-piperidin-4-yl}-3-(4-pyrrolidin-1-yl-phenyl)-urea]: 1100 nM and 198 nM.
